Our source for the IC50 and inhibition values is patent US4939137A, “Ring-fused thienopyrimidinedione derivatives” (Ortho Pharmaceutical Corporation, priority 1989, dated 1990).

By IC50 is commonly meant the concentration that gives 50% inhibition.

The target in assay [1] is alpha-1 adrenergic receptor. Put plainly: Brain Alpha-1 Radioreceptor Assay (3H-prazosin). Particulars: guinea pig brain membranes, 30 minutes, 30° C., read-out: RECEPTOR BINDING ALPHA-1 (IC50). On the procedure: Membrane fragments were prepared from the brains of mature female guinea pigs after removal of the corpus striata. The alpha-1 adrenergic receptor sites were labeled with ^3 H-prazosin. Membrane fragments, ^3 H-prazosin and an unlabeled test compound were incubated for 30 minutes at 30° C. Compound bound to the receptor site was separated from the remaining unbound radioligand by vacuum filtration. Specific binding was determined by the difference between total counts bound and counts bound in the presence of 10-^5 M phentolamine.

In a further assay the target is T1, 5HT2 receptor (Rattus norvegicus, UniProt P14842).
T1 construct: Membrane fragments were prepared from the frontal cortex dissected from brains obtained from female rats; from tissue; host or cells: frontal cortex, female rats
In words: Brain Serotonin 5HT2 Radioreceptor Assay (3H-ketanserin). The class given is binding. Particulars: for IC50: rat frontal cortex membranes, 15 minutes, 37° C., read-out: RECEPTOR BINDING 5HT-2 (IC50); for inhibition at 1 µM: 0.25 h, @ 10^-6, rat frontal cortex membranes, read-out: RECEPTOR BINDING 5HT-2, % @ 10^-6. On the procedure: Membrane fragments were prepared from the frontal cortex dissected from brains obtained from female rats (~150 g). The 5HT2 sites were labeled with ^3 H-ketanserin. Membrane fragments, ^3 H-ketanserin and an unlabeled test compound were incubated for 15 minutes at 37° C. Compound bound to the receptor site was separated from the remaining unbound compound by vacuum filtration.
The ability of a nonlabeled compound to compete with ^3 H-ketanserin for binding sites was a measure of the compound's affinity for the 5HT2 receptor. Specific binding was determined by the difference between total counts bound and counts bound in the presence of 10^-6 M methysergide.
Data are presented as the IC50, the concentration of nonlabeled compound required to displace 50% of the ^3 H-ketanserin specifically bound to 5HT2 binding sites.

Another assay addresses T2, 5HT1A receptor (Rattus norvegicus, UniProt P19327).
T2 construct: Membrane fragments were prepared from the frontal cortex dissected from brains obtained from female rats; from tissue; host or cells: frontal cortex, female rats
T2 sequence (P19327 1-422): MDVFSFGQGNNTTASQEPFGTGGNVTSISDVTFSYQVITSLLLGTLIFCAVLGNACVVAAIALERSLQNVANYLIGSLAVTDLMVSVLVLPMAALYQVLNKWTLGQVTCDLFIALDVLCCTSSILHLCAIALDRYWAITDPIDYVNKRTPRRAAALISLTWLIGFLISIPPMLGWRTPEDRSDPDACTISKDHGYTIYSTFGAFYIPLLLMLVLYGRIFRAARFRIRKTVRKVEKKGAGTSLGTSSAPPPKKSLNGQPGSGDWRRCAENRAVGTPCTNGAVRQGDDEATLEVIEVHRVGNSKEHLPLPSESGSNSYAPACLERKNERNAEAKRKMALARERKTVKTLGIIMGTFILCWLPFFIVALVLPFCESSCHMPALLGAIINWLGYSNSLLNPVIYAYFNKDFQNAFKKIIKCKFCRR
In words: Brain Serotonin 5HT1A Radioreceptor Assay (3H-80H-DPAT). Format: binding. Particulars: for IC50: rat frontal cortex membranes, 10 minutes, 37° C., read-out: RECEPTOR BINDING 5HT-1A (IC50); for inhibition at 1 µM: @ 10^-6, rat frontal cortex membranes, read-out: RECEPTOR BINDING 5HT-1A, % @ 10^-6. On the procedure: Membrane fragments were prepared from the frontal cortex dissected from brains obtained from female rats (~150 g). The 5HT1A sites were labeled with ^3 H-80H-dipropylaminotetralin (^3 H-80H-DPAT). Membrane fragments, ^3 H-80H-DPAT and an unlabeled test compound were incubated for 10 minutes at 37° C. The tubes were then placed in an ice bath for an additional 10 minutes. Compound bound to the receptor site was separated from the remaining unbound compound by vacuum filtration.
The ability of a nonlabeled compound to compete with ^3 H-80H-DPAT for binding sites was a measure of the compound's affinity for the 5HT1A receptor. Specific binding was determined by the difference between total counts bound and counts bound in the presence of 10^-5 M serotonin.
Data are presented at the IC50, the concentration of nonlabeled compound required to displace 50% of the ^3 H-80H-DPAT specifically bound to 5HT1A binding sites.

Molecules are shown by their SMILES.

T1 sequence (P14842 whole entry, the tested form may be a part): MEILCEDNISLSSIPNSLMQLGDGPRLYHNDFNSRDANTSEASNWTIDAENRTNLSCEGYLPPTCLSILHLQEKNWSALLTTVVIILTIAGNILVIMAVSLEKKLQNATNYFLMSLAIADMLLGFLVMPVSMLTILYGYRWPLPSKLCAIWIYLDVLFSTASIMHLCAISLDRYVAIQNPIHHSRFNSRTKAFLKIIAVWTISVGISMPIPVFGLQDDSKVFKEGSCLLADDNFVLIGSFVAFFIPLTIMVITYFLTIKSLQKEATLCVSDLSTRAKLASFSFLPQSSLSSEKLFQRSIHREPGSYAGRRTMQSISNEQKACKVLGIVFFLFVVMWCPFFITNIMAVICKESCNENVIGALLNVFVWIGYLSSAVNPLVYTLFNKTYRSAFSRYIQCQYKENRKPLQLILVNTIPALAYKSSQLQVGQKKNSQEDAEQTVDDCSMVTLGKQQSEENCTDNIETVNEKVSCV

With `COc1ccccc1N1CCN(CCn2c(=O)c3csc4c3n(c2=O)CCCCC4=O)CC1` [Example 16, 4,7,8,9,10,11-Hexahydro-4-[2-[4-(2-methoxyphenyl)piperazin-1-yl]ethyl]thieno[4,3,2-de]pyrimido[3,4-a]azocine-3,5,11-trione], the half-inhibitory concentration (IC50) in assay [1] is 35 nM; at 5HT2 receptor, 2000 nM; at 5HT1A receptor, 160 nM.

For `COc1ccccc1N1CCN(CCCCn2c(=O)c3csc4c3n(c2=O)CCC4=O)CC1` [Example 11, 3,4,5,7,8,9-Hexahydro-4-[4-[4-(2-methoxyphenyl)-piperazin-1-yl]butyl]thieno[4,3,2-de]pyrido[1,2-c]pyrimidine-3,5,9-trione], the IC50 stood at 0.5 nM in assay [1] and 0.9 nM on 5HT1A receptor. Besides, the inhibition at 1 µM at 5HT2 receptor is 33%.

`O=C1CCn2c(=O)n(CCN3CC=C(c4ccccc4)CC3)c(=O)c3csc1c32` [Example 17, 3,4,5,7,8,9-Hexahydro-4-[2-(4-phenyl-1,2,3,6-tetrahydropyridin-1-yl)ethyl]thieno[4,3,2-de]pyrido[1,2-c]pyrimidine-3,5,9-trione]: in assay [1], the IC50 turned out to be 7.6 nM. Also, the results for the inhibition at 1 µM on 5HT2 receptor and on 5HT1A receptor were 21% and 1.8%, respectively.

`O=C1CCn2c(=O)n(CCCCCN3CCN(c4cccc(C(F)(F)F)c4)CC3)c(=O)c3csc1c32` [Example 43]: the IC50 on 5HT2 receptor turned out to be 430 nM; at 5HT1A receptor it was 52 nM.

Consider `O=C1CCn2c(=O)n(CCCCCN3CCC(=C(c4ccc(F)cc4)c4ccc(F)cc4)CC3)c(=O)c3csc1c32` [Example 45, 4-[5-[4-[Bis(4-fluorophenyl)methylene]piperadin-1-yl]pentyl]-3,4,5,7,8,9-hexahydrothieno[4,3,2-de]pyrimidine-3,5,9-trione Monooxalate], for which the half-inhibitory concentration (IC50) on 5HT2 receptor was 55 nM; on 5HT1A receptor, 240 nM.

As for `COc1ccccc1N1CCN(CCn2c(=O)c3csc4c3n(c2=O)CCC4NC(C)=O)CC1` (stereo not shown) [Example 39, 9-Acetylamino-3,4,5,7,8,9-hexahydro-4-[2-[4-(2-methoxyphenyl)piperazin-1-yl]ethyl]thieno[4,3,2-de]pyrido[1,2-c]pyrimidine-3,5-dione], the IC50 came to 0.35 nM in assay [1], 750 nM at 5HT2 receptor and 580 nM at 5HT1A receptor.

On to `O=C1CCn2c(=O)n(CCN3CCC(C(=O)c4ccc(F)cc4)CC3)c(=O)c3csc1c32` [Example 19, 4-[2-[4-(4-Fluorobenzoyl)piperidin-1-yl]ethyl]-3,4,5,7,8,9-hexahydrothieno[4,3,2-de]pyrido[1,2-c]pyrimidine-3,5,9-trione], for which the figures for the half-maximal inhibitory concentration (IC50) (in assay [1]; on 5HT2 receptor) were 1000 nM and 1 nM, respectively. Besides, the inhibition at 1 µM at 5HT1A receptor was determined as 35%.

On to `O=C1CCn2c(=O)n(CCN3CCC(=C(c4ccc(F)cc4)c4ccc(F)cc4)CC3)c(=O)c3csc1c32` [Example 20, 4-[2-[4-[Bis(4-fluorophenyl)methylene]piperidin-1-yl]ethyl]-3,4,5,7,8,9-hexahydrothieno[4,3,2-de]pyrimidine-3,5,9-trione], for which the IC50 in assay [1] is 22000 nM; on 5HT2 receptor, 180 nM. In addition, the inhibition at 1 µM at 5HT1A receptor was found to be 47%.

On to `CON=C1CCn2c(=O)n(CCN3CCN(c4ccccc4OC)CC3)c(=O)c3c(C)sc1c32` [Example 28, 3,4,5,7,8,9-Hexahydro-9-methoxyimino-4-[2-[4-(2-methoxyphenyl)piperazin-1-yl]ethyl]-2-methyl-thieno[4,3,2-de]pyrido[1,2-c]pyrimidine-3,5-dione], for which the results for the IC50 (in assay [1]; on 5HT2 receptor; at 5HT1A receptor) were below 1 nM, 150 nM and 20 nM, respectively.

Turning to `COc1ccccc1N1CCN(CCCCCn2c(=O)c3csc4c3n(c2=O)CCC4=O)CC1` [Example 12, 3,4,5,7,8,9-Hexahydro-4-[5-[4-(2-methoxyphenyl)piperazin-1-yl]pentyl]thieno[4,3,2-de]pyrido[1,2-c]pyrimidine-3,5,9-trione], the IC50 was found to be 1500 nM at 5HT2 receptor and 45 nM on 5HT1A receptor.

For `CON=C1CCCn2c(=O)n(CCN3CCN(c4ccccc4OC)CC3)c(=O)c3csc1c32` [Example 27, 4,7,8,9-Tetrahydro-10-methoxyimino-4-[2-[4-(2-methoxyphenyl)piperazin-1-yl]ethyl]thieno[4,3,2-de]pyrimido[3,4-a]azepine-3,5-dione], the IC50 came to 0.14 nM in assay [1] and 70 nM on 5HT1A receptor. For the same compound, on 5HT2 receptor, the inhibition at 1 µM was determined as 11%.

On to `CON=C1CCn2c(=O)n(CCCCCN3CCN(c4cccc(C(F)(F)F)c4)CC3)c(=O)c3csc1c32` [Example 44, 4-[5-[4-(3-Trifluoromethylphenyl)piperazin-1-yl]-pentyl]-3,4,5,7,8,9-hexahydro-9-methoxyiminothieno[4,3,2-de]pyrido[1,2-c]pyrimidine-3,5-dione], for which the IC50 was determined as 130 nM on 5HT2 receptor and 200 nM on 5HT1A receptor.

For `O=C1CCn2c(=O)n(CCN3CCN(c4cccc(C(F)(F)F)c4)CC3)c(=O)c3csc1c32` [Example 6, 4-[2-[4-(3-Trifluoromethylphenyl)piperazin-1-yl]ethyl]-3,4,5,7,8,9-hexahydrothieno[4,3,2-de]-pyrido[1,2-c]pyrimidine-3,5,9-trione], the figures for the IC50 (in assay [1]; on 5HT2 receptor; on 5HT1A receptor) were 1000 nM, 700 nM and 28 nM, respectively.

Turning to `O=C1CCn2c(=O)n(CCCCN3CCC(C(=O)c4ccc(F)cc4)CC3)c(=O)c3csc1c32` [Example 42, 4-[4-[4-(4-Fluorobenzoyl)piperidin-1-yl]butyl]-3,4,5,7,8,9-hexahydrothieno[4,3,2-de]pyrido[1,2-c]pyrimidine-3,5,9-trione], the half-maximal inhibitory concentration (IC50) in assay [1] was found to be 540 nM; on 5HT2 receptor, 630 nM; at 5HT1A receptor, 400 nM.

Turning to `O=C1CCn2c(=O)n(CCN3CCN(c4cccc(Cl)c4)CC3)c(=O)c3csc1c32` [Example 7, 4-[2-[4-(3-Chlorophenyl)piperazin-1-yl]ethyl]-3,4,5,7,8,9-hexahydrothieno[4,3,2-de]pyrido[1,2-c]pyrimidine-3,5,9-trione], the figures for the IC50 (in assay [1]; on 5HT2 receptor; on 5HT1A receptor) were 180 nM, 350 nM and 5 nM, respectively.

For the compound `CON=C1CCn2c(=O)n(CCCN3CCN(c4ccccc4OC)CC3)c(=O)c3csc1c32` [Example 29, 3,4,5,7,8,9-Hexahydro-9-methoxyimino-4-[3-[4-(2-methoxyphenyl)piperazin-1-yl]propyl]thieno-[4,3,2-de]pyrido[1,2-c]pyrimidine-3,5-dione], the IC50 in assay [1] came to 26 nM. Besides, the values for the inhibition at 1 µM at 5HT2 receptor and on 5HT1A receptor were 34.3% and 5.2%, respectively.

Consider `O=C1CCn2c(=O)n(CCCCN3CCN(c4cccc(C(F)(F)F)c4)CC3)c(=O)c3csc1c32` [Example 18, 4-[4-[4-(3-Trifluoromethylphenyl)piperazin-1-yl]butyl]-3,4,5,7,8,9-hexahydrothieno[4,3,2-de]-pyrido[1,2-c]pyrimidine-3,5,9-trione], for which the IC50 in assay [1] stood at 4500 nM. Besides, the inhibition at 1 µM at 5HT2 receptor worked out at 47%.

`COc1ccccc1N1CCN(CCCn2c(=O)c3csc4c3n(c2=O)CCC4=O)CC1` [Example 10, 3,4,5,7,8,9-Hexahydro-4-[3-[4-(2-methoxyphenyl)piperazin-1-yl]propyl]thieno[4,3,2-de]pyrido[1,2-c]pyrimidine-3,5,9-trione]: the IC50 in assay [1] was found to be 21 nM; on 5HT2 receptor, 300 nM; at 5HT1A receptor, 5 nM.
